Data reported in patent US7026339B2, “Inhibitors of HCV NS5B polymerase” (priority 2003, dated 2006).

Tested on: HuH-7 replicon cells 5–15 and 9–13 (HCV replication)
Assay: Inhibition of viral replication in HuH-7 replicon cells (HCV RNA / GAPDH RNA by multiplex RT-PCR)
Format: cell-based
Details: Hepatitis C virus, 72 h; inhibiting 50% of replication; HuH-7 replicon cells, 3 days; read-out: IC50
Summary of the method: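 Replicon cells seeded at 7×10^3 cells/well, grown 24 h, then exposed 3 days at 37 °C to compound at final 100 μM–1 μM (1% DMSO). Multiplex TaqMan RT-PCR on total RNA quantified HCV 5′-UTR and GAPDH RNA against a standard curve; HCV/GAPDH ratio reported as percent of untreated control.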

Compound	IC50 [µM]
O=C(Cc1cccc(Cl)c1)N/N=C/c1ccc(F)cc1OS(=O)(=O)c1ccc(C(F)(F)F)cc1 [Compound 211, 2-((E)-{[(3-chlorophenyl)acetyl]hydrazono}methyl)-5-fluorophenyl 4-(trifluoromethyl)benzenesulfonate]	5 to 50
Cc1ccc(S(=O)(=O)Oc2cc(F)ccc2/C=N/NC(=O)Cc2cccc(Cl)c2)cc1 [Compound 212, 2-((E)-{[(3-chlorophenyl)acetyl]hydrazono}methyl)-5-fluorophenyl 4-methylbenzenesulfonate]	< 5
O=C(Cc1cccc(Cl)c1)N/N=C/c1ncccc1OS(=O)(=O)c1ccc(C(F)(F)F)cc1 [Compound 213, 2-((E)-{2-[2-(3-chlorophenyl)acetyl]hydrazono}methyl)-pyridin-3-yl 4-(trifluoromethyl)benzenesulfonate]	5 to 50
COc1cccc(CC(=O)N/N=C/c2ncccc2OS(=O)(=O)c2ccc(C(F)(F)F)cc2)c1 [Compound 214, 2-((E)-{2-[2-(3-methoxyphenyl)acetyl]hydrazono}methyl)-pyridin-3-yl 4-(trifluoromethyl)benzenesulfonate]	5 to 50
O=C(Cc1cccc(Cl)c1)N/N=C/c1cccnc1OS(=O)(=O)c1ccc(C(F)(F)F)cc1 [Compound 215, 3-((E)-{2-[2-(3-chlorophenyl)acetyl]hydrazono}methyl)-pyridin-2-yl 4-(trifluoromethyl)benzenesulfonate]	> 50
COc1cccc(CC(=O)N/N=C/c2ccccc2OS(=O)(=O)c2ccc(N3CCOCC3)nc2)c1 [Compound 216, 2-((E)-{2-[2-(3-methoxyphenyl)acetyl]hydrazono}methyl)-phenyl 6-morpholin-4-ylpyridine-3-sulfonate]	5 to 50
COc1cccc(CC(=O)N/N=C/c2ccccc2OS(=O)(=O)c2ccc(Oc3cccnc3)cc2)c1 [Compound 217, 2-((E)-{2-[2-(3-methoxyphenyl)acetyl]hydrazono}methyl)-phenyl 4-(pyridin-3-yloxy)benzenesulfonate]	5 to 50
COc1cccc(CC(=O)N/N=C/c2ccccc2OS(=O)(=O)c2ccc(Oc3ncc(C(F)(F)F)cc3Cl)cc2)c1 [Compound 218, 2-((E)-{2-[2-(3-methoxyphenyl)acetyl]hydrazono}methyl)-phenyl 4-{[3-chloro-5-(trifluoromethyl)pyridin-2-yl]oxy}benzenesulfonate]	> 50
C/C(=N\NC(=O)Cc1ccccc1)c1ccccc1OS(=O)(=O)c1ccc(C(F)(F)F)cc1 [Compound 219, 2-[(1E)-N-(phenylacetyl)ethanehydrazonoyl]phenyl4-(trifluoromethyl)benzenesulfonate]	> 50
COc1cccc(CC(=O)N/N=C(\C)c2cc(F)ccc2OS(=O)(=O)c2ccc(C(F)(F)F)cc2)c1 [Compound 220, 4-fluoro-2-{(1E)-N-[(3-methoxyphenyl)acetyl]ethanehydrazonoyl}-phenyl 4-(trifluoromethyl)-benzenesulfonate]	> 50
COc1cccc(CC(=O)N/N=C(\C)c2ccccc2OS(=O)(=O)c2ccc(C(F)(F)F)cc2)c1 [Compound 221, 2-{(1E)-N-[(3-methoxyphenyl)acetyl]ethanehydrazonoyl}-phenyl 4-(trifluoromethyl)benzenesulfonate]	> 50
COc1cccc(CC(=O)N/N=C(\C)c2ccc(F)cc2OS(=O)(=O)c2ccc(C(F)(F)F)cc2)c1 [Compound 222, 5-fluoro-2-{(1E)-N-[(3-methoxyphenyl)acetyl]ethanehydrazonoyl}-phenyl 4-(trifluoromethyl)benzenesulfonate]	> 50
C/C(=N\NC(=O)Cc1ccc(Cl)c(Cl)c1)c1ccccc1OS(=O)(=O)c1ccc(C(F)(F)F)cc1 [Compound 223, 2-{(1E)-N-[(3,4-dichlorophenyl)acetyl]ethanehydrazonoyl}-phenyl 4-(trifluoromethyl)benzenesulfonate]	> 50
COC(=O)CCc1ccc(S(=O)(=O)Oc2ccccc2/C=N/NC(=O)Cc2cccc(OC)c2)cc1 [Compound 224, methyl 3-(4-{[2-((E)-{[(3-methoxyphenyl)acetyl]hydrazono}methyl)-phenoxy]sulfonyl}phenyl)propanoate]	> 50
